For the test, the target named is T1, human nicotinic acetylcholine receptor subtype a4b2 (Homo sapiens, UniProt P17787+P43681).
T1 construct: expressed in transfected cells
Description: Characterization of hα4β2 positive allosteric modulators using FLIPR. It is filed as cell-based. The settings on record: shift of nicotine pEC50 in presence of 10 μM test compound; HEK-293 cells stably expressing hα4β2; fluo-4 calcium FLIPR. How it is done: Characterization of hα4β2 Positive Allosteric Modulators Using FLIPR
The modulator activity is determined as a fluorescence-based assay using a Fluorometric Imaging Plate Reader (FLIPR) as described below in more detail.
HEK-hα4β2 cells were seeded on poly-D-lysin-coated 384 well microtiter plates and allowed to proliferate for 24 h. Dye loading was performed by incubating cells with 2 μM fluo-4/AM for 1.5 h at room temperature. Dye not taken up by the cells was removed by aspiration, followed by three washing cycles with NMDG Ringer buffer (containing in mM: 140 NMDG, 5 KCl, 1 MgCl2, 10 CaCl2, 10 HEPES, pH 7.4). The microtiter plates were then placed in the FLIPR and subjected to test solutions.
Full concentration-response curves of nicotine were generated in the absence and presence test compound. Background-subtracted nicotine-mediated calcium responses were determined and normalized to maximal nicotine control responses. Nicotine potencies (expressed as pEC50) were calculated and the difference between the functional potency in the absence and presence of test compound was determined (Δ pEC50).
The modulatory activity of compounds of the invention determined as ΔpEC50 values in the presence of 10 μM of test compound are presented in Table 1 below.

T1 sequence (P43681 29-627 limits assumed): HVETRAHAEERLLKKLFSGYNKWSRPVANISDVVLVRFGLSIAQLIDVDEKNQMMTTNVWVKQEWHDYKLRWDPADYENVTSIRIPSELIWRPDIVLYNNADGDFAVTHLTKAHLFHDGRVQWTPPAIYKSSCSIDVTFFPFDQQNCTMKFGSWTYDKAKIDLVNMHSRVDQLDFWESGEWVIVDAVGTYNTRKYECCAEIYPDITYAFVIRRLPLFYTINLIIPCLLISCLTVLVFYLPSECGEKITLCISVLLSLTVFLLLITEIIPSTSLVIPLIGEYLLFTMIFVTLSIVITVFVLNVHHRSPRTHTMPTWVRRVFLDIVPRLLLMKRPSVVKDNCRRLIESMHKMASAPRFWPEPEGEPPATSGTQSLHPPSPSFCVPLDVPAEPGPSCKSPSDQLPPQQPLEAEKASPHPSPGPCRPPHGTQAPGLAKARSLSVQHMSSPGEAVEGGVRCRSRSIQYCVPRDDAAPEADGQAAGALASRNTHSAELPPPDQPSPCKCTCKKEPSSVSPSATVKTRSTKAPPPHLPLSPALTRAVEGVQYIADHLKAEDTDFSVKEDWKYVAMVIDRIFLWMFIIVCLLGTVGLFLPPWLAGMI
T1 sequence (P17787 26-502): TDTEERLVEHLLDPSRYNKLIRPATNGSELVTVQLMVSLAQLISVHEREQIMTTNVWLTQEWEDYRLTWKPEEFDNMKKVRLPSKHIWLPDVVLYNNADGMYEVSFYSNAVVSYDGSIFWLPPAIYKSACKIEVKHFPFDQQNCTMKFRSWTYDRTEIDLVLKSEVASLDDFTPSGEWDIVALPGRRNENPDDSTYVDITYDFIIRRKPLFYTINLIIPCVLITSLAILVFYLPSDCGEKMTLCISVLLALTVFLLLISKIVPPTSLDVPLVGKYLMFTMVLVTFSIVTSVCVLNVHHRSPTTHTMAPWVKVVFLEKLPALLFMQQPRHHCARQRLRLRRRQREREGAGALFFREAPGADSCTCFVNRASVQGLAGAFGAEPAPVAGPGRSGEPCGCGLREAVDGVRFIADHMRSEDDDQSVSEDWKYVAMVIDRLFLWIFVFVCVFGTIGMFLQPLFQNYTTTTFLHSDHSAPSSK

Regarding `Clc1ccc(-n2nnc(-c3cccnc3)n2)cn1` [Compound B17, 2-chloro-5-[5-(3-pyridyl)tetrazol-2-yl]pyridine], the ΔpEC50 is recorded as 2.0.
In the case of `Fc1ccc(-n2nnc(-c3cccnc3)n2)cn1` [Compound B9, 2-Fluoro-5-[5-(3-pyridyl)tetrazol-2-yl]pyridine], the ΔpEC50 came to 1.9.
The same measure for `Brc1cncc(-n2nnc(-c3cccnc3)n2)c1` [Compound B2, 3-Bromo-5-[5-(3-pyridyl)tetrazol-2-yl]pyridine]: 0.55.
`Clc1cncc(-n2nnc(-c3cccnc3)n2)c1` [Compound B21, 3-chloro-5-[5-(3-pyridyl)tetrazol-2-yl]pyridine]: the ΔpEC50 is listed as 0.8.
Under `Cc1ccc(-c2nnn(-c3cccnc3)n2)cn1` [Compound B4, 2-Methyl-5-[2-(3-pyridyl)tetrazol-5-yl]pyridine] stands 1.0; under `Cc1ccc(-n2nnc(-c3cccnc3)n2)cn1` [Compound B5, 2-Methyl-5-[5-(3-pyridyl)tetrazol-2-yl]pyridine], 1.7; under `Fc1ccc(-n2nnc(-c3cccnc3F)n2)cn1` [Compound B24, 2-fluoro-3-[2-(6-fluoro-3-pyridyl)tetrazol-5-yl]pyridine], 1.6.
With `Fc1ccc(-c2nnn(-c3cccnc3)n2)cn1` [Compound B14, 2-Fluoro-5-[2-(3-pyridyl)tetrazol-5-yl]pyridine], the ΔpEC50 was 1.5.
For the compound `Clc1ccc(-c2nnn(-c3cccnc3)n2)cn1` [Compound B13, 2-Chloro-5-[2-(3-pyridyl)tetrazol-5-yl]pyridine], the ΔpEC50 amounted to 1.8.
With `Fc1ccc(-n2nnc(-c3cncc(I)c3)n2)cn1` [Compound B25, 2-fluoro-5-[5-(5-iodo-3-pyridyl)tetrazol-2-yl]pyridine], the ΔpEC50 was determined as 0.58.
Under `Cc1cncc(-n2nnc(-c3cccnc3)n2)c1` [Compound B6, 3-Methyl-5-[5-(3-pyridyl)tetrazol-2-yl]pyridine] stands 0.16; under `Fc1cncc(-c2nnn(-c3cccnc3)n2)c1` [Compound B16, 3-Fluoro-5-[2-(3-pyridyl)tetrazol-5-yl]pyridine], 1.7; under `Fc1ccc(-n2nnc(-c3cncc(Cl)c3)n2)cn1` [Compound B18, 3-chloro-5-[2-(6-fluoro-3-pyridyl)tetrazol-5-yl]pyridine], 1.5.
Under `Fc1cncc(-c2nnn(-c3ccc(Cl)nc3)n2)c1` [Compound B19, 2-chloro-5-[5-(5-fluoro-3-pyridyl)tetrazol-2-yl]pyridine] stands 1.6.
Turning to `Fc1cncc(-c2nnn(-c3ccc(F)nc3)n2)c1` [Compound B11, 3-Fluoro-5-[2-(6-fluoro-3-pyridyl)tetrazol-5-yl]pyridine], the ΔpEC50 is on record as 1.4.
Under `Fc1cncc(-n2nnc(-c3cncc(Cl)c3)n2)c1` [Compound B22, 3-chloro-5-[2-(5-fluoro-3-pyridyl)tetrazol-5-yl]pyridine] stands 1.1.
Under `Fc1cncc(-c2nnn(-c3cncc(F)c3)n2)c1` [Compound B10, 3-Fluoro-5-[2-(5-fluoro-3-pyridyl)tetrazol-5-yl]pyridine] stands 1.3; under `Cc1ncccc1-n1nnc(-c2cccnc2)n1` [Compound B7, 2-Methyl-3-[5-(3-pyridyl)tetrazol-2-yl]pyridine], 0.11.
Under `Cc1ncccc1-c1nnn(-c2cccnc2)n1` [Compound B8, 2-Methyl-3-[2-(3-pyridyl)tetrazol-5-yl]pyridine] stands −0.29.
For `O=C(O)/C=C/C(=O)O.c1cncc(-c2nnn(-c3cccnc3)n2)c1` [Compound B1, 3-[2-(3-Pyridyl)tetrazol-5-yl]pyridine fumarate], the ΔpEC50 is 1.8.
The same measure for `COc1cncc(-n2nnc(-c3cccnc3)n2)c1` [Compound B3, 3-Methoxy-5-[5-(3-pyridyl)tetrazol-2-yl]pyridine]: −0.16; for `Clc1cncc(-c2nnn(-c3cccnc3)n2)c1` [Compound B15, 3-Chloro-5-[2-(3-pyridyl)tetrazol-5-yl]pyridine]: 1.7.
Take `Brc1cncc(-c2nnn(-c3cccnc3)n2)c1` [Compound B23, 3-bromo-5-[2-(3-pyridyl)tetrazol-5-yl]pyridine]: the ΔpEC50 amounted to 1.5.
For the compound `Fc1cncc(-n2nnc(-c3ccc(Cl)nc3)n2)c1` [Compound B20, 2-chloro-5-[2-(5-fluoro-3-pyridyl)tetrazol-5-yl]pyridine], the ΔpEC50 was found to be 0.74.
The same measure for `Fc1cncc(-n2nnc(-c3cccnc3)n2)c1` [Compound A1, 3-Fluoro-5-[5-(3-pyridyl)tetrazol-2-yl]pyridine]: 1.5.
Under `Fc1cncc(-n2nnc(-c3ccc(F)nc3)n2)c1` [Compound B12, 2-Fluoro-5-[2-(5-fluoro-3-pyridyl)tetrazol-5-yl]pyridine] stands 1.6.

(Values after US20120309792A1, “TETRAZOLE DERIVATIVES AS NICOTINIC ACETYLCHOLINE RECEPTOR MODULATORS” (NEUROSEARCH A/S, priority 2009, published 2012).)
